One data set deals with K562. As to the kind of experiment: Cytotoxicity against human K562 cells assessed as inhibition of cell growth by MTT assay. The format is functional, cell-based. For orientation: Tetrazolium assays rely on reduction of a dye to a coloured formazan, in cell work by metabolically active cells.
For another data set, the system named is H69AR. The data set can be described thus: Cytotoxicity against human NCI-H69AR cells assessed as inhibition of cell growth by SRB assay. The format is functional, cell-based. For orientation: Sulforhodamine B stains cellular protein and so reports cell mass.
A further data set has as its system MDA-MB-231. As to the kind of experiment: Cytotoxicity against human MDA-MB-231 cells assessed as inhibition of cell growth by SRB assay. The data set is classed as functional, cell-based.
The next data set has as its system ASPC1. As to the kind of experiment: Cytotoxicity against human ASPC1 cells assessed as inhibition of cell growth by SRB assay. The format is functional, cell-based.
Data set [1] in a line: Cytotoxicity against human L02 cells assessed as inhibition of cell growth by SRB assay. The format is toxicity, cell-based.

Each structure is given as a SMILES string.

A word on the IC50: it is the concentration needed to halve the response being measured. `COC1=CC(=O)C(O)=C(C[C@@]2(C)CC[C@]3(C)C(C=O)=CCC[C@H]3[C@H]2C)C1=O`: the IC50 in the data set on K562 is above 30 µM; in the data set on H69AR it was 2.85 µM; with MDA-MB-231, above 30 µM; in the data set on ASPC1 it was above 30 µM; in data set [1], 12.1 µM.
`COC1=CC(=O)[C@@H](C[C@@]2(C)CC[C@]3(C)C(C)=CCC[C@H]3[C@H]2C)[C@H]1O`: the IC50 (in the data set on K562; with H69AR; in the data set on MDA-MB-231; in the data set on ASPC1; in data set [1]) was above 30 µM each time.
With `COc1cc(O)cc2c1O[C@]1(C)CC[C@H]3C(C)(C)CCC[C@]3(C)[C@H]1C2`, the 50% inhibitory concentration (IC50) is 14 µM in the data set with K562; above 30 µM in the data set with H69AR; above 30 µM in the data set on MDA-MB-231; above 30 µM in the data set on ASPC1; above 30 µM in data set [1].
Regarding `COC1=CC(=O)C(O)=C(C[C@@]2(C)CC[C@]3(C)[C@@H](C)C(=O)CC[C@H]3[C@H]2C)C1=O`, the IC50 with K562 is 16.1 µM; in the data set on H69AR, above 30 µM; in the data set on MDA-MB-231 it was above 30 µM; in the data set on ASPC1, above 30 µM; in data set [1] it was 7.6 µM.
As for `COC1=CC(=O)C=C(C[C@]2(C)[C@H](C)CC[C@@H]3C(C)=CCC[C@@H]32)C1=O`, the IC50 (in the data set on K562; in the data set with H69AR; in the data set with MDA-MB-231; in the data set with ASPC1; in data set [1]) was above 30 µM in each case.
As for `CCCCOC1=CC(=O)C(O)=C(C[C@@]2(C)CC[C@]3(C)C(C)=CCC[C@H]3[C@H]2C)C1=O`, the IC50 in the data set on K562 was 3.01 µM; in the data set on H69AR, 7.74 µM; with MDA-MB-231, 9.82 µM; with ASPC1, above 30 µM; in data set [1] it was 20.3 µM.
Taken in the same sequence, the figures for `COC1=CC(=O)[C@H](C[C@@]2(C)CC[C@]3(C)C(C)=CCC[C@H]3[C@H]2C)[C@H]1O` were above 30 µM, above 30 µM, above 30 µM, above 30 µM and above 30 µM.
With `COC(=O)/C=C1/OC(=O)C(C[C@@]2(C)CC[C@]3(C)C(C)=CCC[C@H]3[C@H]2C)=C1O`, the 50% inhibitory concentration (IC50) (with K562; in the data set on H69AR; in the data set on MDA-MB-231; in the data set on ASPC1; in data set [1]) was above 30 µM each time.
Regarding `C=C1CCC[C@H]2[C@@H]1CC[C@@H](C)[C@@]2(C)CC1=CC(=O)C=C(OC)C1=O`, the IC50 (in the data set with K562; with H69AR; in the data set with MDA-MB-231; in the data set on ASPC1; in data set [1]) was above 30 µM throughout.
Consider `COC1=CC(=O)C2=C(C[C@@H]3[C@@]4(C)CCCC(C)(C)[C@@H]4CC[C@@]23C)C1=O`, for which the IC50 (in the data set on K562; in the data set on H69AR; in the data set on MDA-MB-231; in the data set with ASPC1; in data set [1]) was above 30 µM in each case.
`COc1cccc2c1C(=O)c1c(O)c3c(c(O)c1C2=O)C[C@@](O)(C(=O)CO)C[C@@H]3O[C@H]1C[C@H](N)[C@H](O)[C@H](C)O1` [DOXORUBICIN]: the IC50 with K562, in the data set with H69AR, in the data set with MDA-MB-231 and in the data set with ASPC1 was below 1 µM each time.

Source of the values: ChEMBL document CHEMBL5390294, “Pseudoceranoids A-J, Sesquiterpene-Based Meroterpenoids with Cytotoxicity from the Sponge Pseudoceratina purpurea” (J Nat Prod, 2023).
